The text below walks through data of PMC8065100, “How cyanophage S-2L rejects adenine and incorporates 2-aminoadenine to saturate hydrogen bonding in its DNA” (Nature Communications, 2021).

Assay [1] addresses T1, DatZ (S-2L HD phosphohydrolase) (Cyanophage S-2L, UniProt A0A7U3TCA2).
T1 construct: full length 175 aa, synthetic codon-optimised gene, N-terminal 14-His tag removed by TEV, E. coli host, hexamer (D3)
The experiment in a line: X-ray crystal structure; hydrolysis to dA seen by HPLC. The format is binding. To be noted: crystals grown with 10 mM EDTA, pH 7; active site; partially occupied Zn2+ in site A; HPLC assay: 20 mM Tris pH 7, 5 mM MgCl2, 37 °C.

For assay [2], the target named is S-2L DatZ (dATP triphosphohydrolase, HD-domain phosphohydrolase of cyanophage S-2L) (cyanophage S-2L). The experiment in a line: AUC + other: DLS; in vitro; stoichiometry worked out assuming a perfectly globular shape; conditions not given.

Turning to `Nc1ncnc2c1ncn2[C@H]1C[C@H](O)[C@@H](COP(=O)(O)OP(=O)(O)OP(=O)(O)O)O1` [dATP], the “X-ray crystal structure; hydrolysis to dA seen by HPLC” value in assay [1] is “we solved a third structure of DatZ, this time with bound dATP (PDB ID: 6ZPC”.
For the compound “S-2L DatZ (dATP triphosphohydrolase, HD-domain phosphohydrolase of cyanophage S-2L) (enzyme)”, the stoichiometry N (protomers per oligomer) in assay [2] was found to be 5.9.
